Measured values taken from PubChem BioAssay (NCI).
“And” between values parts separate entries of the source, which are not always exact repeats. Equal entries are not always repeated.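 Following 48 hours of exposure in 96-well plates, responses at five concentrations were used to interpolate endpoints linearly. Abbreviation: GI50, concentration required for 50% inhibition of growth. At the TGI there is no net growth.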

How the values were obtained:
Test in all cases: NCI tumour cell line growth inhibition, 48 h
[1] = tested on: MDA-MB-435
[2] = tested on: SN12C renal
[3] = tested on: M19-MEL melanoma
[4] = tested on: SK-OV-3 ovarian
[5] = tested on: UO-31 renal
[6] = tested on: MALME-3M melanoma
[7] = tested on: HOP-62 NSCLC
[8] = tested on: HCC-2998 colon
[9] = tested on: OVCAR-4 ovarian
[10] = tested on: SR leukemia
[11] = tested on: SNB-78 CNS
[12] = tested on: SF-295 CNS
[13] = tested on: ACHN renal
[14] = tested on: SW-620 colon
[15] = tested on: DMS 114 small cell lung
[16] = tested on: 786-0 renal
[17] = tested on: SK-MEL-5 melanoma
[18] = tested on: P388/ADR leukemia
[19] = tested on: KM12 colon
[20] = tested on: OVCAR-3 ovarian
[21] = tested on: OVCAR-5 ovarian
[22] = tested on: DMS 273 small cell lung
[23] = tested on: DU-145 prostate
[24] = tested on: T-47D breast
[25] = tested on: KM20L2 colon
[26] = tested on: MDA-MB-231 breast
[27] = tested on: CAKI-1 renal
[28] = tested on: SF-268 CNS
[29] = tested on: RPMI-8226 leukemia
[30] = tested on: UACC-257 melanoma
[31] = tested on: OVCAR-8 ovarian
[32] = tested on: NCI-H522 lung
[33] = tested on: SNB-19 CNS
[34] = tested on: PC-3 prostate

O=C1C=C2C(=CCOC2O)O1 (stereo unspecified) was tested, and the GI50 [1] was 1.64 µM, the TGI [1] was 3.86 µM and the GI50 [2] was 2.59 µM. For the same compound, the TGI [2] was 1.86 µM and 10 µM, the TGI [3] was 8.14 µM and the GI50 [4] was 11.5 µM and 12.2 µM. The TGI [4] was 20.6 µM and 24.6 µM, the GI50 [5] was 3.98 µM and 1.24 µM and the TGI [5] was 8.77 µM and 6.43 µM. The TGI [6] was 2.04 µM, the TGI [7] was 20.5 µM and 23.4 µM and the GI50 [8] was 11.4 µM. The TGI [9] was 12.5 µM, the GI50 [10] was 2.11 µM and the TGI [10] was 8.51 µM. For the same compound, the TGI [11] was 11.6 µM, the GI50 [12] was 3.34 µM and 6.25 µM and the TGI [12] was 8.88 µM and 22.4 µM. For the same compound, the GI50 [13] was 1.28 µM, the TGI [13] was 3.34 µM and the GI50 [14] was 0.395 µM and 0.443 µM. For the same compound, the TGI [14] was 1.23 µM and 1.88 µM, the TGI [15] was 3.29 µM and the GI50 [16] was 2.67 µM. For the same compound, the TGI [16] was 7.06 µM, the GI50 [17] was 2.43 µM and the TGI [17] was 3.17 µM and 9.05 µM. For the same compound, the TGI [18] was 0.569 µM, the GI50 [19] was 0.783 µM and 3.08 µM and the TGI [19] was 1.85 µM and 11.2 µM. For the same compound, the GI50 [20] was 1.7 µM and 0.664 µM, the TGI [20] was 4.06 µM and 2.19 µM and the GI50 [21] was 2.97 µM. For the same compound, the TGI [21] was 15.8 µM and 7.74 µM, the TGI [22] was 2.41 µM and the GI50 [23] was 2.07 µM. For the same compound, the TGI [23] was 6.48 µM, the GI50 [24] was 1.4 µM and the TGI [24] was 4.64 µM. For the same compound, the TGI [25] was 12.1 µM, the GI50 [26] was 1.96 µM and the TGI [26] was 5.07 µM. For the same compound, the GI50 [27] was 1.06 µM and 1 µM, the TGI [27] was 2.3 µM and 2.5 µM and the GI50 [28] was 1.1 µM and 3.66 µM. For the same compound, the TGI [28] was 8.18 µM and 13.9 µM, the GI50 [29] was 3.6 µM and the TGI [30] was 3.85 µM. For the same compound, the GI50 [31] was 0.734 µM and 2.57 µM, the TGI [31] was 5.07 µM and 9.22 µM and the GI50 [32] was 1.12 µM. The TGI [32] was 1.07 µM and 2.52 µM, the GI50 [33] was 3.23 µM and 12.8 µM and the TGI [33] was 9.77 µM and 27.8 µM. The GI50 [34] was 4.69 µM and the TGI [34] was 17.1 µM.
